# Results as given in patent US9682955B2, “Quinazoline derivatives useful as CB-1 inverse agonists” (Janssen Pharmaceutica NV, priority 2014, dated 2017).
# Tests used:
# [1] = target: Human CB1R (Cannabanoid receptor 1) (Homo sapiens (Human), UniProt P21554); experiment: CB-1 in vitro cAMP assay (HTRF); type: cell-based; settings: mean where tested more than once
# Description: (§1) CB1 and CB2 receptors are Gi-coupled GPCR. Activation of CB1 and CB2 receptors results in a decrease in cAMP production. An inverse agonist of the CB1 or CB2 receptor results in the opposite effect, an increase of cAMP production. The principle of this assay is based on HTRF® technology (Homogeneous Time-Resolved Fluorescence). The method is a competitive immunoassay between native cAMP produced by cells and the cAMP labeled with the fluorophore d2. The tracer binding is quantified by a Mab anti-cAMP labeled with Eu3+TBP-NHS Cryptate (supplied as part of the assay kit). The specific signal (i.e. energy transfer) is inversely proportional to the concentration of cAMP in the standard or sample.
# (§2) Human CB1R (Cannabanoid receptor 1) was stably transfected in HEK-293 cells (DiscoveRx, cat: 93-0200C1). Human CB2R (Cannabanoid receptor 2) was stably transfected in HEK-293 cells (DiscoveRx, cat: 93-0201C1). Cell cultures were maintained in media: DMEM (Invitrogen Cat#12430-054) supplemented with 10% HI FBS (Invitrogen Cat#16140-071), 1% L-glutamine (Invitrogen Cat#25030-081), 0.2 mg/ml Hygromycin B (Invitrogen Cat#10687-010), 600 μg/mL G418 (Invitrogen Cat#10131-035), and 1× Penn/Strep (Invitrogen 15140-122). After cell expansion, aliquots were cryo-stored in media containing 5% DMSO (Pierce Cat#20684).
# (§3) One day prior to experiments media was warmed to 37° C. and the cryo-stored cells were thawed in a 37° C. water bath. The cells were then added to media (10× volume) and the mixture was centrifugated at 1000 RPM for 5 min. The supernate was removed and the cells were re-suspended in media. A sample of the cell suspension was evaluated on a Cedex XS automated cell counter (Innovatis Systems) to determine viable cells/ml. Additional media was added to the cells to achieve a final cell density of 4E5 cells/mL. The cells were then plated into 384 well PDL white solid bottom plates (Greiner, Cat#781945) at 20 μL per well using a Multidrop (Thermo Scientific). Cells were removed from Row P (location of cAMP standards). Two columns of cells were plated into a clear bottom 384 well PDL coated plate (Greiner, Cat#781944) to view confluence the day of the assay. The cell plates were lidded and stored for 15 minutes in a hood, then transferred to an incubator (37° C., 5% CO2, 95% humidity) overnight.
# (§4) DMSO was added to all wells of 384 well V bottom polystyrene plate (Greiner, Cat#781280) except to columns 1 and 13, rows O and P and wells M13-M23 and N13-N23. Test compounds (60 μL, 10 mM) were added to Column 1 and 13 (A1 through N1 and A13 through L13). Test compounds were serially diluted 1/3 by transferring and mixing 20 μl sample with 40 μL DMSO.
# (§5) DMSO (40 μL) was added to wells of 384 well V bottom polystyrene plate: O2 through O11, M14 through M23, N14 through N23, and O14 through O23. AM630 (also known as [6-iodo-2-methyl-1-[2-(4-morpholinyl)ethyl]-1H-indol-3-yl](4-methoxyphenyl)-methanone, Cayman Chemical, Cat#10006974) (60 μL, 10 mM) was added to O1; and 1-(2,4-dichlorophenyl)-7-[(4-fluorophenyl)methylene]-4,5,6,7-tetrahydro-N-1-piperidinyl-1H-indazole-3-carboxamide (60 μL, 10 mM) was added to N13. The control was serially diluted 1/3 by transferring and mixing 20 μl sample with 40 μL DMSO. This process resulted 11 doses per control, 10 mM to […].
# (§6) Cells plated the day prior to the assay in clear bottom plates were viewed on an inverse microscope to ensure confluency in the range of 60-75%. […]
# [2] = target: Human CB2R (Cannabanoid receptor 2) (Homo sapiens (Human), UniProt P34972); experiment: CB-2 in vitro cAMP assay (HTRF); type: cell-based; settings: mean where tested more than once
# Sequence of Human CB2R (Cannabanoid receptor 2) (P34972 whole entry): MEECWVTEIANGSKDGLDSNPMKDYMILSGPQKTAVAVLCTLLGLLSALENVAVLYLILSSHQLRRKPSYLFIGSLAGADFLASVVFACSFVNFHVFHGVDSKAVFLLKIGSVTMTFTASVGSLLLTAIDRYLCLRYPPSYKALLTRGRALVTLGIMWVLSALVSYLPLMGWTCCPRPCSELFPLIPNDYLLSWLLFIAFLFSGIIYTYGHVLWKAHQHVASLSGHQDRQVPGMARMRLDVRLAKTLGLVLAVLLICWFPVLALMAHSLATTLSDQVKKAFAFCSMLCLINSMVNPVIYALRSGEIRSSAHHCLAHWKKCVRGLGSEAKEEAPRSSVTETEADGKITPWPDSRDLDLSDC
# Description: as §1, §2, §3, §4, §5, §6
# Sequence of Human CB1R (Cannabanoid receptor 1) (P21554 whole entry): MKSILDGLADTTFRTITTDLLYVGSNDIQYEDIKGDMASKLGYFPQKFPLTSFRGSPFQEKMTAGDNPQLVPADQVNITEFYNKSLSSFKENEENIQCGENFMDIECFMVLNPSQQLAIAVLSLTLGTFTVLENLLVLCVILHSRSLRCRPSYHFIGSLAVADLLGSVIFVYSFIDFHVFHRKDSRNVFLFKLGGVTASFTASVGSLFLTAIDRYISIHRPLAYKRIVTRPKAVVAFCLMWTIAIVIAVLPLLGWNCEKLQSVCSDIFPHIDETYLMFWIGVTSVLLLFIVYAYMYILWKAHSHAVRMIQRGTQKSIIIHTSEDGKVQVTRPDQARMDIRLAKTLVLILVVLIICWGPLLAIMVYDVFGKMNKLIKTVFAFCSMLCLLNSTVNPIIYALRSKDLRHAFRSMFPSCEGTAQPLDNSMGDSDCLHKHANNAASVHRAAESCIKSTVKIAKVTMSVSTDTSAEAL
EC50 [1] [nM],EC50 [2] [nM],Compound
191,3570,"NC(=O)c1ccc(CN2CCC(Nc3ncnc4ccc(C(c5ccc(Cl)cc5)c5ccc(Cl)cc5)cc34)CC2)cc1 [compound 38, 4-((4-(6-(bis(4-chlorophenyl)methyl)quinazolin-4-ylamino)piperidin-1-yl)methyl)benzamide]"
194,> 10000,"O=S(=O)(c1ccc(Nc2ncnc3ccc(C(c4ccc(Cl)cc4)c4ccc(Cl)cc4)cc23)cc1)C(F)(F)F [Compound #134, 6-(bis(4-chlorophenyl)methyl)-N-(4-((trifluoromethyl)sulfonyl)phenyl)quinazolin-4-amine]"
83,> 10000,"COC(=O)c1cccc(N2CCC(Nc3ncnc4ccc(C(c5ccc(Cl)cc5)c5ccc(Cl)cc5)cc34)CC2)c1 [compound 97, methyl 3-(4-(6-(bis(4-chlorophenyl)methyl)quinazolin-4-ylamino)piperidin-1-yl)benzoate]"
4,68,"COC(=O)c1ccc(N2CCC(Nc3ncnc4ccc(C(c5ccc(Cl)cc5)c5ccc(Cl)cc5)cc34)CC2)cc1 [Compound #94, methyl 4-(4-((6-(bis(4-chlorophenyl)methyl)quinazolin-4-yl)amino)piperidin-1-yl)benzoate]"
25,1800,"CCOC(=O)CC(=O)N1CCC(Nc2ncnc3ccc(C(c4ccc(Cl)cc4)c4ccc(Cl)cc4)cc23)CC1 [compound 89, ethyl 3-(4-(6-(bis(4-chlorophenyl)methyl)quinazolin-4-ylamino)piperidin-1-yl)-3-oxopropanoate]"
227,917,"CS(=O)(=O)NCCOc1nc(NC2CCN(S(=O)(=O)c3ccc(C(=O)O)cc3)CC2)c2cc(C(c3ccc(Cl)cc3)c3ccc(Cl)cc3)ccc2n1 [Compound #33, 4-((4-((6-(bis(4-chlorophenyl)methyl)-2-(2-(methylsulfonamido)ethoxy)quinazolin-4-yl)amino)piperidin-1-yl)sulfonyl)benzoic acid]"
5,910,"O=C(c1ccccc1)N1CCC(Nc2ncnc3ccc(C(c4ccc(Cl)cc4)c4ccc(Cl)cc4)cc23)CC1 [compound 119, (4-(6-(bis(4-chlorophenyl)methyl)quinazolin-4-ylamino)piperidin-1-yl)(phenyl)methanone]"
5300,> 10000,"O=C(O)c1ccc(CNc2ncnc3ccc(C(c4ccc(Cl)cc4)c4ccc(Cl)cc4)cc23)cc1 [compound 60, 4-((6-(bis(4-chlorophenyl)methyl)quinazolin-4-ylamino)methyl)benzoic acid]"
15,371,"Oc1ccc(N2CCC(Nc3ncnc4ccc(C(c5ccc(Cl)cc5)c5ccc(Cl)cc5)cc34)CC2)cc1 [Compound #32, 4-(4-((6-(bis(4-chlorophenyl)methyl)quinazolin-4-yl)amino)piperidin-1-yl)phenol]"
3,> 10000,"FC(F)(F)c1cccc(CNc2ncnc3ccc(C(c4ccc(Cl)cc4)c4ccc(Cl)cc4)cc23)c1 [Compound #136, 6-(bis(4-chlorophenyl)methyl)-N-(3-(trifluoromethyl)benzyl)quinazolin-4-amine]"
34,8200,"C[C@@H](Nc1ncnc2ccc(C(c3ccc(Cl)cc3)c3ccc(Cl)cc3)cc12)c1cccc(C(F)(F)F)c1 (single isomer, unassigned) [compound 115]"
8,845,"NC(=O)CCCOc1nc(NCc2ccc(C(F)(F)F)cc2)c2cc(C(c3ccc(Cl)cc3)c3ccc(Cl)cc3)ccc2n1 [Compound #66, 4-((6-(bis(4-chlorophenyl)methyl)-4-((4-(trifluoromethyl)benzyl)amino)quinazolin-2-yl)oxy)butanamide]"

Compound,EC50 [1] [nM],EC50 [2] [nM]
O=C(NC(CO)(CO)CO)c1ccc(N2CCC(Nc3ncnc4ccc(C(c5ccc(Cl)cc5)c5ccc(Cl)cc5)cc34)CC2)cc1 [compound 42],180,216
